Earlier results on one molecule are cited in patent US11497760B2, “Method for solubilizing poorly water-soluble dietary supplements and pharmaceutically active agents” (ATHENION AG, priority 2016, dated 2022).

The target of data set [1] is human CYP3A4 (Homo sapiens, UniProt P08684).
Data set [2] deals with P-glycoprotein (Homo sapiens, UniProt P08183).
Sequence of P-glycoprotein (P08183 whole entry): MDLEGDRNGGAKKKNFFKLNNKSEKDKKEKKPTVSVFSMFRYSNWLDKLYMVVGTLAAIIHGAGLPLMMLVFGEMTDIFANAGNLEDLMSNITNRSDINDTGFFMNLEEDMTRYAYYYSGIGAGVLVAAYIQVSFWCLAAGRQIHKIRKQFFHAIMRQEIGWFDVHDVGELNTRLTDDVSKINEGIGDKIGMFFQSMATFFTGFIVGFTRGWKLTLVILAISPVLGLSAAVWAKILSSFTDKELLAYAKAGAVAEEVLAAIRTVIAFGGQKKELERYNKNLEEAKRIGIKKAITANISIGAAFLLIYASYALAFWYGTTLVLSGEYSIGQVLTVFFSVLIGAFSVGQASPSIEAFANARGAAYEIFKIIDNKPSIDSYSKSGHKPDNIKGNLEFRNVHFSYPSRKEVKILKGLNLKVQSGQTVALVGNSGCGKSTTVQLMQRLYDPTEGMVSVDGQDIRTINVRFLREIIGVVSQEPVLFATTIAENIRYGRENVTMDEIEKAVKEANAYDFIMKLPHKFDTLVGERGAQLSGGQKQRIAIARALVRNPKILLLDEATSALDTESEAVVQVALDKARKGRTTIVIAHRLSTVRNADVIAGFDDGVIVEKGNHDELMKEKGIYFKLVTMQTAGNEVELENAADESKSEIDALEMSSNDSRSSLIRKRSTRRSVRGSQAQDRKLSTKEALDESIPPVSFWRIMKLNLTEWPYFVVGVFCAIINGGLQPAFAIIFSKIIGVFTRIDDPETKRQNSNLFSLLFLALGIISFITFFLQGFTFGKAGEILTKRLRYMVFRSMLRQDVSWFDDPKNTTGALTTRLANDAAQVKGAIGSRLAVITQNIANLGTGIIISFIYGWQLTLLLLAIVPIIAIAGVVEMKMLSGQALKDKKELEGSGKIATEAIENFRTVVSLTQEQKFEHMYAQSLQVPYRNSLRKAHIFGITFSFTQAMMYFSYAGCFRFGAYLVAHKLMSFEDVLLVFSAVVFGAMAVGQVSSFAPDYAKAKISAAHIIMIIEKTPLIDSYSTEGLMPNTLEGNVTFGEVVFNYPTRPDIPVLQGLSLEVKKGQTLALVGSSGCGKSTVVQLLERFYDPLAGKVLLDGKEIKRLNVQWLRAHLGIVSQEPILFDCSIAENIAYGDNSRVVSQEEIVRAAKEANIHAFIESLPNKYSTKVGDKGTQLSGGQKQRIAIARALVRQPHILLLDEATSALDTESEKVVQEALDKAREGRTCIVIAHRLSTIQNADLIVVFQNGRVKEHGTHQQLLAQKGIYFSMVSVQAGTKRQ

Sequence of human CYP3A4 (P08684 whole entry): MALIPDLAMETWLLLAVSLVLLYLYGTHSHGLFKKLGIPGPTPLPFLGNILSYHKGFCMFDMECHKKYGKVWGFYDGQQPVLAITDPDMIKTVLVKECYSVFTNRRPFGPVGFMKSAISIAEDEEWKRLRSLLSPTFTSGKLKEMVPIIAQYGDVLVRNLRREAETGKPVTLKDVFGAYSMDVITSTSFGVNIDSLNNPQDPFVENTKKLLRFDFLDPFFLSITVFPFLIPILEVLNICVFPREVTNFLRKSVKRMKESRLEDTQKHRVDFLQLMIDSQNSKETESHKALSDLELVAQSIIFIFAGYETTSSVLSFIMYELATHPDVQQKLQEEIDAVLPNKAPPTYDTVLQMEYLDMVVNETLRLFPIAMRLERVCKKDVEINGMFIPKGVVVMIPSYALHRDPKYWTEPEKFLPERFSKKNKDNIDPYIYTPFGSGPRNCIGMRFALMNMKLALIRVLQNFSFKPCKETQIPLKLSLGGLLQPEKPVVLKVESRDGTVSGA

For the molecule `O=C(C=CC=Cc1ccc2c(c1)OCO2)N1CCCCC1` [Piperine, 1-[5-(1,3-benzodioxol-5-yl)-1-oxo-2,4-pentadienyl]piperidine], in data set [1], the “inhibition of human CYP3A4” value is “inhibit”. Moreover, the “inhibition of P-glycoprotein” value in data set [2] is listed as “inhibit”.
